Test results from patent publication US8927580B2, “Thiosemicarbazone compounds and use in the treatment of cancer” (Oncochel Therapeutics LLC, priority 2010, dated 2015).

Experiments:
[1] = tested on: SK-N-MC neuroepithelioma cell line; test: MTT anti-proliferative assay in SK-N-MC cells; type: cell-based, human; details: Homo sapiens, 72 h at 37° C., mean±SD (3 experiments)
Procedure: The cells were maintained in minimum essential media (MEM; Invitrogen, CA, USA) which contained 10% fetal calf serum (FCS; JRH Biosciences, Kansas, USA), 1% non-essential amino acids (Gibco, Victoria, Australia), 1% penicillin/streptomycin/glutamine (Gibco, VIC, Australia) and fungizone ([…]; Squibb Pharmaceuticals, Montreal, Canada).
The ability of the compounds to inhibit cellular proliferation was assessed initially in SK-N-MC cells by the MTT assay.
Table 1. […] Cells were seed and allowed to attach to wells for 24 h and then incubated for 72 h at 37° C. with control medium or the chelators.

[2] = tested on: CFPAC-1 pancreatic cancer cells; test: MTT proliferation assay, CFPAC-1; type: cell-based; details: Homo sapiens; CFPAC-1, MTT, 72 h
Procedure: The pancreatic cancer cell lines, including MIAPaCa-2, PANC 1, CAPAN-2 and CFPAC-1 were a generous gift from Prof. Andrew Biankin (Garvan Institute, NSW, Australia). The MIAPaCa-2, PANC 1 and CFPAC-1 cell lines were grown in DMEM medium (Invitrogen) and CAPAN-2 cells were grown in McCoy's medium (Invitrogen). All media was supplemented with 10% (v/v) fetal calf serum (Invitrogen), 1% (v/v) non-essential amino acids (Invitrogen), 1% (v/v) sodium pyruvate (Invitrogen), 2 mM L-glutamine (Invitrogen), 100 μg/mL of streptomycin (Invitrogen), 100 U/ml penicillin (Invitrogen), and 0.28 μg/mL of fungizone.
To further examine the spectrum of anti-proliferative activity, Dp4cycH4mT was tested against pancreatic cancer in vitro, performing MTT proliferation assays with PANC 1, MIAPaCa-2, CFPAC-1 and CAPAN-2 pancreatic cancer cells. As a comparison, currently used treatments for pancreatic cancer including gemcitabine and 5-fluorouracil were also tested. The iron chelator, DFO, was included as a positive control.
(§1) Table 2A. Anti-proliferative activity of Dp4cycH4mT against pancreatic cancer cell lines. Growth and antiproliferative activity IC50 (μM) values of Dp4cycH4mT in a variety of pancreatic cell lines and in comparison to DFO and the clinically used drugs gemcitabine and 5-fluorouracil as determined by the MTT assay. Cells were seeded and allowed to attach to wells for 24 h and then incubated for 72 h at 37° C. with control medium or the chelators. Results are mean±SD (3 experiments).
as §1, with “2B.” for “2A.”, “IC90” for “Growth and antiproliferative activity IC50”

[3] = tested on: PANC 1 human pancreatic carcinoma; test: PANC 1 xenograft in nude mice: tumour growth; type: in vivo, nude mice (BALBc nu/nu); details: Dp4cycH4mT 5 mg/kg/day i.v.
Procedure: FIG. 5). […] (5 mg/kg) or vehicle control.

NDRG1 = test: Western blot analysis, NDRG1 expression; type: cell-based; details: MIAPaCa-2 cells
Procedure: (§2) Western analysis was performed via established protocols (Gao, J. and D. R. Richardson (2001). Blood 98: 842-50). The primary antibodies used were against NDRG1 (Abcam; UK), p21, cyclin D1, transferrin receptor 1 (TfR1; Santa Cruz, CA, USA) and β-actin (Sigma-Aldrich), with secondary HRP-conjugated goat and mouse antibodies (Sigma-Aldrich).
(§3) Dp4cycH4mT was examined to determine whether it could up-regulate NDRG-1 expression. To further evaluate the effect of the chelator Dp4cycH4mT on other key molecules involved in cell cycle progression, the expression of the cyclin-dependent kinase inhibitor, p21, as well as cyclin D1 in MIAPaCa-2 cells was also examined.

cyclin D1 = test: Western blot analysis, cyclin D1 levels; type: cell-based; details: MIAPaCa-2 cells
Procedure: as §2, §3

p21 = test: Western blot analysis, p21 expression; type: cell-based; details: MIAPaCa-2 cells
Procedure: as §2, §3

[4] = PANC 1 xenograft study: body and organ weights, haematology, histopathology

IC50 [1]: 13 nM | IC50 [2]: 400 ± 200 nM | IC90 [2]: 5400 ± 1100 nM | HCT ([4]; Dp4cycH4mT 5 mg/kg/day): 0.41 ± 0.01 | Hb ([4]; Dp4cycH4mT 5 mg/kg/day): 131.88 ± 4.31 g/L | Platelets ([4]; Dp4cycH4mT 5 mg/kg/day): 1283 ± 160 10^9/L | RBC ([4]; Dp4cycH4mT 5 mg/kg/day): 9.46 ± 0.31 × 10^12/L | Reticulocytes ([4]; Dp4cycH4mT 5 mg/kg/day): 0.77 ± 0.08 × 10^12/L | WBC ([4]; Dp4cycH4mT 5 mg/kg/day): 3.5 ± 0.34 × 10^9/L | Brain weight ([4]; Dp4cycH4mT 5 mg/kg/day i.v.): 0.30 ± 0.01 g | Heart weight ([4]; Dp4cycH4mT 5 mg/kg/day i.v.): 0.09 ± 0.01 g | Kidney weight ([4]; Dp4cycH4mT 5 mg/kg/day i.v.): 0.17 ± 0.02 g | Liver weight ([4]; Dp4cycH4mT 5 mg/kg/day i.v.): 0.80 ± 0.03 g | Spleen weight ([4]; Dp4cycH4mT 5 mg/kg/day i.v.): 0.08 ± 0.01 g
Compound: CN(C(=S)NN=C(c1ccccn1)c1ccccn1)C1CCCCC1 [Dp4cycH4mT, di-2-pyridylketone 4-cyclohexyl-4-methyl-3-thiosemicarbazone]
Tumour weight [3]: 0.04 ± 0.01 g | NDRG1 expression (NDRG1): significantly (p<0.01) up-regulated | cyclin D1 levels (cyclin D1): significantly (p<0.05) reduced | p21 expression (p21): markedly (p<0.05) increasing | Body weight loss (% initial weight) ([4]; Dp4cycH4mT 5 mg/kg/day i.v.): 88.0 ± 6.5 % initial weight
